Assay results published in PubChem BioAssay (NCI).
Where “and” joins values, the source holds several entries; their conditions need not be identical. Identical values can stand only once.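 Values below derive from 48-hour exposures of cells grown in 96-well plates, with endpoints linearly interpolated between the two concentrations bracketing the appropriate inhibition level. Abbreviation: GI50, concentration required for 50% inhibition of growth. TGI is the concentration that stops growth completely.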 Where a SMILES comes first, the peptide text is derived from it. [ ]: non-standard residue; d: D form. Phe(4-NO2) = N[CH](Cc1ccc([N+](=O)[O-])cc1)C(=O)O

Key:
Experiment in all cases: NCI-60 cell line screen, 48 h
[1] = system: 786-0 renal
[2] = system: A498 renal
[3] = system: A549 NSCLC
[4] = system: ACHN renal
[5] = system: BT-549 breast
[6] = system: CAKI-1 renal
[7] = system: CCRF-CEM leukemia
[8] = system: COLO 205 colon
[9] = system: DU-145 prostate
[10] = system: EKVX NSCLC
[11] = system: HCC-2998 colon
[12] = system: HCT-116 colon
[13] = system: HCT-15 colon
[14] = system: HL-60(TB) leukemia
[15] = system: HOP-62 NSCLC
[16] = system: HOP-92 NSCLC
[17] = system: HS 578T breast
[18] = system: HT29 colon
[19] = system: IGROV1 ovarian
[20] = system: K-562 leukemia
[21] = system: KM12 colon
[22] = system: LOX IMVI melanoma
[23] = system: M14 melanoma
[24] = system: MALME-3M melanoma
[25] = system: MCF7 breast
[26] = system: MDA-MB-231 breast
[27] = system: MOLT-4 leukemia
[28] = system: NCI-H23 lung
[29] = system: NCI-H460 lung
[30] = system: NCI-H522 lung
[31] = system: NCI/ADR-RES ovarian
[32] = system: OVCAR-3 ovarian
[33] = system: OVCAR-5 ovarian
[34] = system: OVCAR-8 ovarian
[35] = system: PC-3 prostate
[36] = system: RPMI-8226 leukemia
[37] = system: RXF 393 renal
[38] = system: SF-268 CNS
[39] = system: SF-295 CNS
[40] = system: SF-539 CNS
[41] = system: SK-MEL-2 melanoma
[42] = system: SK-MEL-5 melanoma
[43] = system: SN12C renal
[44] = system: SNB-19 CNS
[45] = system: SR leukemia
[46] = system: SW-620 colon
[47] = system: TK-10 renal
[48] = system: U251 CNS
[49] = system: UACC-257 melanoma
[50] = system: UACC-62 melanoma
[51] = system: UO-31 renal
[52] = system: MDA-MB-435
[53] = system: NCI-H226 lung
[54] = system: OVCAR-4 ovarian
[55] = system: SK-MEL-28 melanoma
[56] = system: SK-OV-3 ovarian
[57] = system: SNB-75 CNS
[58] = system: T-47D breast

COc1ccc2c(c1)[nH]c(=O)c1c3ccccc3cn21
GI50 [1]: 0.0413 µM
TGI [1]: 1.84 µM and 2.16 µM
GI50 [2]: 0.0223 µM and < 0.0375 µM
GI50 [3]: 0.067 µM
TGI [3]: 1.65 µM and 1.69 µM
GI50 [4]: 0.125 µM
TGI [4]: 1.83 µM and 6.41 µM
GI50 [5]: 0.0549 µM
TGI [5]: 2.03 µM and 3.83 µM
GI50 [6]: 0.0355 µM
TGI [6]: 1.97 µM and 5.38 µM
GI50 [7]: 0.03 µM
GI50 [8]: 0.0412 µM
TGI [8]: 1.16 µM
TGI [9]: 11.9 µM
GI50 [10]: 0.0907 µM and < 0.0478 µM
TGI [10]: 19.1 µM
GI50 [11]: 0.0183 µM
TGI [11]: 0.0492 µM
GI50 [12]: 0.0395 µM
TGI [12]: 1.32 µM and 1.12 µM
GI50 [13]: 0.0262 µM and < 0.0177 µM
GI50 [14]: 0.0114 µM
TGI [14]: 0.0607 µM
GI50 [15]: 0.0312 µM
TGI [15]: 1.23 µM
GI50 [16]: 1.01 µM and 2.18 µM
TGI [16]: 15.9 µM
GI50 [17]: 0.0508 µM
TGI [17]: 2.71 µM and 14.1 µM
GI50 [18]: 0.034 µM
GI50 [19]: 0.0734 µM and < 0.0114 µM
TGI [19]: 2.27 µM and 16 µM
GI50 [20]: 0.00892 µM
GI50 [21]: 0.0331 µM and < 0.0486 µM
GI50 [22]: 0.0712 µM
TGI [22]: 1.77 µM and 2.09 µM
TGI [23]: 12.9 µM
TGI [24]: 14.9 µM
GI50 [25]: 0.0282 µM and < 0.0378 µM
TGI [25]: 1.46 µM and 12.7 µM
GI50 [26]: 0.0565 µM and 0.148 µM
TGI [26]: 0.74 µM and 1.08 µM
GI50 [27]: 0.0778 µM
TGI [27]: 2.14 µM and 9.95 µM
TGI [28]: 3.39 µM and 14.6 µM
GI50 [29]: 0.0348 µM
TGI [29]: 1.12 µM
GI50 [30]: 0.0597 µM
TGI [30]: 2.28 µM and 1.48 µM
GI50 [31]: 0.0213 µM
TGI [31]: 0.0575 µM
GI50 [32]: 0.0223 µM
TGI [32]: 0.0652 µM
GI50 [33]: 0.101 µM
TGI [33]: 7.86 µM and 5.56 µM
GI50 [34]: 0.0581 µM
TGI [34]: 2.36 µM and 5.18 µM
GI50 [35]: 0.0368 µM
TGI [35]: 2.55 µM and 3.04 µM
GI50 [36]: 0.0366 µM
TGI [36]: 1.4 µM and 0.4 µM
GI50 [37]: 0.0204 µM
TGI [37]: 3.19 µM and 2.47 µM
GI50 [38]: 0.0738 µM
GI50 [39]: 0.0268 µM
TGI [39]: 1.05 µM
GI50 [40]: 0.0228 µM
TGI [40]: 0.0704 µM and 0.207 µM
TGI [41]: 2.49 µM and 18.7 µM
GI50 [42]: 0.0282 µM
TGI [42]: 1.17 µM and 0.728 µM
GI50 [43]: 0.0571 µM and 0.28 µM
TGI [43]: 2.08 µM and 8.97 µM
GI50 [44]: 0.0387 µM
TGI [44]: 4.05 µM and 26.4 µM
TGI [45]: 2.04 µM
GI50 [46]: 0.0264 µM
TGI [46]: 1.42 µM and 1.51 µM
GI50 [47]: 0.515 µM and 0.265 µM
TGI [47]: 2.43 µM and 2.21 µM
GI50 [48]: 0.0436 µM
TGI [48]: 1.52 µM and 4.44 µM
GI50 [49]: 5.13 µM and 12.7 µM
TGI [49]: 30.8 µM
GI50 [50]: 0.0738 µM
TGI [50]: 1.89 µM and 13.3 µM
GI50 [51]: 0.0795 µM
TGI [51]: 2.26 µM and 5.82 µM

CC(NC(=O)C(Cc1ccc([N+](=O)[O-])cc1)NC(=O)C(N)CCCCN)C(=O)NC(Cc1ccc([N+](=O)[O-])cc1)C(N)=O (centres undefined) (H-K[Phe(4-NO2)]A[Phe(4-NO2)]-NH2; configuration not given here)
TGI [1]: > 100 µM
TGI [2]: > 100 µM
TGI [3]: > 97 µM
TGI [4]: > 100 µM
TGI [5]: > 54 µM
TGI [6]: > 100 µM
TGI [7]: > 100 µM
TGI [8]: > 100 µM
TGI [9]: > 100 µM
TGI [10]: > 100 µM
TGI [11]: > 64.8 µM
TGI [12]: > 100 µM
TGI [13]: > 100 µM
TGI [14]: > 48.9 µM
TGI [15]: > 52.1 µM
TGI [16]: 70.5 µM
TGI [17]: 99.6 µM
TGI [18]: > 100 µM
TGI [19]: > 100 µM
TGI [20]: > 55.3 µM
TGI [21]: > 57.4 µM
TGI [22]: > 100 µM
TGI [23]: > 74.3 µM
TGI [24]: > 83.7 µM
TGI [25]: > 100 µM
TGI [26]: > 69.9 µM
TGI [52]: > 71.5 µM
TGI [27]: > 59.4 µM
TGI [53]: > 100 µM
TGI [28]: > 100 µM
TGI [29]: > 100 µM
TGI [30]: > 44.4 µM
TGI [31]: > 100 µM
TGI [32]: > 100 µM
TGI [54]: > 100 µM
TGI [33]: > 100 µM
TGI [34]: > 100 µM
TGI [35]: > 100 µM
TGI [36]: > 44.7 µM
TGI [37]: > 100 µM
TGI [38]: > 100 µM
TGI [39]: > 70.9 µM
TGI [40]: > 83.9 µM
TGI [41]: > 86.6 µM
TGI [55]: > 100 µM
TGI [42]: 51.5 µM
TGI [56]: > 100 µM
TGI [43]: > 100 µM
TGI [44]: > 100 µM
TGI [57]: > 100 µM
TGI [46]: > 100 µM
TGI [58]: > 80.8 µM
TGI [47]: > 100 µM
TGI [48]: > 100 µM
TGI [49]: > 84.7 µM
TGI [50]: > 100 µM
TGI [51]: > 66.6 µM

Cc1cc(Nc2ncc3c(n2)N(C)C(=O)N(c2cc(NC(=O)c4cccc(C(F)(F)F)c4)ccc2C)C3)n(C)n1
GI50 [1]: 0.0599 µM
TGI [1]: > 46.4 µM
GI50 [2]: 0.0158 µM
TGI [2]: 0.0458 µM
GI50 [3]: 0.044 µM
TGI [3]: 0.417 µM
GI50 [4]: 0.0281 µM
GI50 [5]: 0.0628 µM
TGI [5]: 0.321 µM
GI50 [6]: 0.0182 µM
TGI [6]: 0.0709 µM
GI50 [7]: 2.36 µM
TGI [7]: > 46.4 µM
GI50 [8]: 0.019 µM
TGI [8]: 0.0368 µM
GI50 [11]: 0.541 µM
TGI [11]: > 46.4 µM
GI50 [12]: 0.0333 µM
TGI [12]: 27.1 µM
GI50 [13]: 0.196 µM
TGI [13]: > 46.4 µM
GI50 [14]: 0.0365 µM
GI50 [15]: 0.0769 µM
TGI [15]: > 15.6 µM
GI50 [17]: 0.0353 µM
TGI [17]: 0.206 µM
GI50 [18]: 0.023 µM
TGI [18]: 0.0864 µM
GI50 [19]: < 0.01 µM
TGI [19]: 0.0524 µM
GI50 [20]: < 0.01 µM
TGI [20]: > 46.4 µM
GI50 [21]: 0.321 µM
TGI [21]: > 46.4 µM
GI50 [22]: 0.0131 µM
TGI [22]: 0.0305 µM
GI50 [23]: < 0.01 µM
TGI [23]: 0.096 µM
GI50 [24]: < 0.0124 µM
TGI [24]: 0.0489 µM
GI50 [25]: 0.624 µM
TGI [25]: > 46.4 µM
GI50 [26]: 0.0255 µM
TGI [26]: 0.164 µM
GI50 [27]: 0.135 µM
TGI [27]: > 46.4 µM
GI50 [53]: 0.0387 µM
TGI [53]: > 100 µM
GI50 [28]: 0.0733 µM
TGI [28]: > 31.6 µM
GI50 [29]: 0.0832 µM
TGI [29]: > 46.4 µM
GI50 [31]: 0.97 µM
TGI [31]: > 31.6 µM
GI50 [33]: 0.0539 µM
GI50 [35]: 0.105 µM
TGI [35]: > 31.6 µM
GI50 [36]: 0.641 µM
TGI [36]: 18.6 µM
GI50 [37]: 0.021 µM
TGI [37]: 0.171 µM
GI50 [38]: 0.0291 µM
TGI [38]: > 100 µM
GI50 [39]: 0.364 µM
TGI [39]: > 100 µM
GI50 [40]: 0.0621 µM
TGI [40]: 0.68 µM
GI50 [41]: 0.0245 µM
TGI [41]: 0.0764 µM
GI50 [55]: 0.02 µM
TGI [55]: 0.15 µM
GI50 [42]: 0.283 µM
TGI [42]: 7.87 µM
GI50 [56]: 0.022 µM
TGI [56]: 0.0701 µM
GI50 [43]: 0.0167 µM
TGI [43]: > 100 µM
GI50 [44]: 0.234 µM
TGI [44]: > 46.4 µM
GI50 [57]: 0.0217 µM
TGI [57]: 0.0699 µM
GI50 [45]: 0.0264 µM
TGI [45]: 1.21 µM
GI50 [46]: 0.0539 µM
TGI [46]: > 46.4 µM
GI50 [58]: 0.0438 µM
TGI [58]: 2.24 µM
GI50 [48]: 0.0317 µM
TGI [48]: > 31.6 µM
GI50 [49]: 0.0197 µM
TGI [49]: 0.125 µM
GI50 [51]: 0.0583 µM
TGI [51]: 0.322 µM
